Experimental data from ChEMBL document CHEMBL6182926, “Design, Synthesis, and Biological Activity Evaluation of Deuterated Diphenyl Azole Alcohol-Based CYP51 Inhibitors” (J Med Chem, 2025).
≈ marks a conversion by molar mass, not a printed value.

Tests used:
Format in all cases: functional
Candida albicans [1] = experiment: Antifungal activity against Candida albicans SC 5314 assessed as inhibition of visible growth
Candida albicans [2] = experiment: Antifungal activity against Candida albicans CPCC 400616 assessed as inhibition of visible growth
Candida tropicalis = experiment: Antifungal activity against Candida tropicalis CGMCC 2.3739 assessed as inhibition of visible growth
Candida parapsilosis = experiment: Antifungal activity against Candida parapsilosis GIM 2.190 assessed as inhibition of visible growth; conditions: Lodderomyces parapsilosis
Nakaseomyces glabratus = experiment: Antifungal activity against Clinical isolate Candida glabrata assessed as inhibition of visible growth
Pichia kudriavzevii = experiment: Antifungal activity against Candida krusei AS 2.1045 assessed as inhibition of visible growth
Cryptococcus neoformans = experiment: Antifungal activity against Cryptococcus neoformans CGMCC 2.3161 assessed as inhibition of visible growth

SMILES	MIC80 (Candida albicans [1]) [µg/mL]	MIC80 (Candida albicans [2]) [µg/mL]	MIC80 (Candida tropicalis) [µg/mL]	MIC80 (Candida parapsilosis) [µg/mL]	MIC80 (Nakaseomyces glabratus) [µg/mL]	MIC80 (Pichia kudriavzevii) [µg/mL]	MIC80 (Cryptococcus neoformans) [µg/mL]
CN(Cc1ccc(-c2ccc(C(F)(F)F)cc2)o1)CC(O)(Cn1cncn1)c1ccc(F)cc1F (stereo unspecified)	0.025 (≈ 0.0508 µM)	0.025 (≈ 0.0508 µM)	0.012 (≈ 0.0244 µM)	0.05 (≈ 0.102 µM)	0.2 (≈ 0.406 µM)	0.2 (≈ 0.406 µM)	0.4 (≈ 0.812 µM)
CN(Cc1ccc(-c2ccc(C(F)(F)F)cc2)s1)CC(O)(Cn1cncn1)c1ccc(F)cc1F (stereo unspecified)	0.012 (≈ 0.0236 µM)	0.006 (≈ 0.0118 µM)	0.006 (≈ 0.0118 µM)	0.006 (≈ 0.0118 µM)	0.4 (≈ 0.787 µM)	0.1 (≈ 0.197 µM)	0.1 (≈ 0.197 µM)
Cc1ccc(-c2ccc(CN(C)CC(O)(Cn3cncn3)c3ccc(F)cc3F)nc2)cc1 (stereo unspecified)	0.25 (≈ 0.556 µM)	0.012 (≈ 0.0267 µM)	0.012 (≈ 0.0267 µM)	0.1 (≈ 0.222 µM)	1.6 (≈ 3.56 µM)	0.2 (≈ 0.445 µM)	0.8 (≈ 1.78 µM)
CN(Cc1ccc(-c2ccc(OC(F)(F)F)cc2)o1)CC(O)(Cn1cncn1)c1ccc(F)cc1F (stereo unspecified)	0.025 (≈ 0.0492 µM)	0.012 (≈ 0.0236 µM)	0.012 (≈ 0.0236 µM)	0.05 (≈ 0.0983 µM)	0.1 (≈ 0.197 µM)	0.1 (≈ 0.197 µM)	0.2 (≈ 0.393 µM)
OC(CN(Cc1ccc(-c2ccc(Cl)cc2)cc1)C1CC1)(Cn1cncn1)c1ccc(F)cc1F (stereo unspecified)	> 3.2	> 3.2	> 3.2	> 3.2	> 3.2	> 3.2	> 3.2
OC(CNCc1ccc(-c2ccc(Cl)cc2)cc1)(Cn1cncn1)c1ccc(F)cc1F (stereo unspecified)	0.025 (≈ 0.055 µM)	0.025 (≈ 0.055 µM)	0.025 (≈ 0.055 µM)	0.025 (≈ 0.055 µM)	0.05 (≈ 0.11 µM)	0.05 (≈ 0.11 µM)	0.05 (≈ 0.11 µM)
CN(Cc1ccc(-c2ccc(OC(F)(F)F)cc2)s1)CC(O)(Cn1cncn1)c1ccc(F)cc1F (stereo unspecified)	0.006 (≈ 0.0114 µM)	0.012 (≈ 0.0229 µM)	0.006 (≈ 0.0114 µM)	0.006 (≈ 0.0114 µM)	0.1 (≈ 0.191 µM)	0.05 (≈ 0.0953 µM)	0.05 (≈ 0.0953 µM)
CN(Cc1ccc(-c2ccc(OC(F)(F)F)cc2)cc1)CC(O)(Cn1cncn1)c1ccc(F)cc1F (stereo unspecified)	0.012 (≈ 0.0231 µM)	0.012 (≈ 0.0231 µM)	0.012 (≈ 0.0231 µM)	0.006 (≈ 0.0116 µM)	0.025 (≈ 0.0482 µM)	0.025 (≈ 0.0482 µM)	0.012 (≈ 0.0231 µM)
CN(Cc1ccc(-c2ccc(OC(F)(F)F)cc2)nc1)CC(O)(Cn1cncn1)c1ccc(F)cc1F (stereo unspecified)	0.012 (≈ 0.0231 µM)	0.012 (≈ 0.0231 µM)	0.025 (≈ 0.0481 µM)	0.006 (≈ 0.0116 µM)	0.05 (≈ 0.0963 µM)	0.025 (≈ 0.0481 µM)	0.05 (≈ 0.0963 µM)
CN(Cc1ccc(-c2ccc(C#N)cc2)cn1)CC(O)(Cn1cncn1)c1ccc(F)cc1F (stereo unspecified)	0.012 (≈ 0.0261 µM)	0.012 (≈ 0.0261 µM)	0.012 (≈ 0.0261 µM)	0.1 (≈ 0.217 µM)	1.6 (≈ 3.47 µM)	0.2 (≈ 0.434 µM)	0.8 (≈ 1.74 µM)
COc1ccc(-c2ccc(CN(C)CC(O)(Cn3cncn3)c3ccc(F)cc3F)nc2)cc1 (stereo unspecified)	0.012 (≈ 0.0258 µM)	0.012 (≈ 0.0258 µM)	0.012 (≈ 0.0258 µM)	0.025 (≈ 0.0537 µM)	0.4 (≈ 0.859 µM)	0.1 (≈ 0.215 µM)	0.4 (≈ 0.859 µM)
CN(Cc1nc(-c2ccc(OC(F)(F)F)cc2)cs1)CC(O)(Cn1cncn1)c1ccc(F)cc1F (stereo unspecified)	0.012 (≈ 0.0228 µM)	0.025 (≈ 0.0476 µM)	0.025 (≈ 0.0476 µM)	0.025 (≈ 0.0476 µM)	0.4 (≈ 0.761 µM)	0.2 (≈ 0.381 µM)	0.1 (≈ 0.19 µM)

The next lines start with the values.

MIC80 (Candida albicans [1]) [µg/mL]	MIC80 (Candida albicans [2]) [µg/mL]	MIC80 (Candida tropicalis) [µg/mL]	MIC80 (Candida parapsilosis) [µg/mL]	MIC80 (Nakaseomyces glabratus) [µg/mL]	MIC80 (Pichia kudriavzevii) [µg/mL]	MIC80 (Cryptococcus neoformans) [µg/mL]	SMILES
0.006 (≈ 0.0123 µM)	0.006 (≈ 0.0123 µM)	0.006 (≈ 0.0123 µM)	0.006 (≈ 0.0123 µM)	0.025 (≈ 0.0513 µM)	0.025 (≈ 0.0513 µM)	0.012 (≈ 0.0246 µM)	CN(Cc1ccc(-c2ccc(Cl)cc2)c(F)c1)CC(O)(Cn1cncn1)c1ccc(F)cc1F (stereo unspecified)
0.025 (≈ 0.0545 µM)	0.05 (≈ 0.109 µM)	0.025 (≈ 0.0545 µM)	0.1 (≈ 0.218 µM)	0.4 (≈ 0.872 µM)	0.4 (≈ 0.872 µM)	0.4 (≈ 0.872 µM)	CN(Cc1ccc(-c2ccc(Cl)cc2)o1)CC(O)(Cn1cncn1)c1ccc(F)cc1F (stereo unspecified)
0.006 (≈ 0.0127 µM)	0.006 (≈ 0.0127 µM)	0.006 (≈ 0.0127 µM)	0.006 (≈ 0.0127 µM)	0.012 (≈ 0.0254 µM)	0.012 (≈ 0.0254 µM)	0.012 (≈ 0.0254 µM)	[2H]C([2H])([2H])N(Cc1ccc(-c2ccc(Cl)cc2)cc1)CC(O)(Cn1cncn1)c1ccc(F)cc1F (stereo unspecified)
0.012 (≈ 0.0255 µM)	0.012 (≈ 0.0255 µM)	0.012 (≈ 0.0255 µM)	0.012 (≈ 0.0255 µM)	0.2 (≈ 0.426 µM)	0.1 (≈ 0.213 µM)	0.025 (≈ 0.0532 µM)	CN(Cc1ccc(-c2cccc(Cl)c2)cn1)CC(O)(Cn1cncn1)c1ccc(F)cc1F (stereo unspecified)
0.025 (≈ 0.0539 µM)	0.012 (≈ 0.0259 µM)	0.012 (≈ 0.0259 µM)	0.012 (≈ 0.0259 µM)	0.1 (≈ 0.216 µM)	0.05 (≈ 0.108 µM)	0.025 (≈ 0.0539 µM)	CCc1ccc(-c2ccc(CN(C)CC(O)(Cn3cncn3)c3ccc(F)cc3F)nc2)cc1 (stereo unspecified)
0.012 (≈ 0.0255 µM)	0.012 (≈ 0.0255 µM)	0.012 (≈ 0.0255 µM)	0.006 (≈ 0.0128 µM)	0.1 (≈ 0.213 µM)	0.025 (≈ 0.0532 µM)	0.05 (≈ 0.106 µM)	CN(Cc1ccc(-c2ccc(Cl)cc2)nc1)CC(O)(Cn1cncn1)c1ccc(F)cc1F (stereo unspecified)
